Measured values reported in ChEMBL document CHEMBL5120836, “Discovery of novel 7,8-dihydropteridine-6(5H)-one-based DNA-PK inhibitors as potential anticancer agents via scaffold hopping strategy” (Eur J Med Chem, 2022).
Values after ≈ are worked out from the molar mass of the structure shown. Active and inactive are the calls of the source. The rule behind the calls is not given here.

Assays:
MCF7 [1] = assay: Synergistic antiproliferative activity against human MCF7 cells assessed as inhibition of cell growth in presence of 100 nM doxorubicin by MTT assay; type: functional, cell-based
[2] = molecular target: T1, Phosphatidylinositol 4,5-bisphosphate 3-kinase catalytic subunit delta isoform (Homo sapiens, UniProt O00329); assay: Inhibition of human PI3Kdelta by ADP-Glo assay; type: toxicity
T1 sequence (O00329 whole entry): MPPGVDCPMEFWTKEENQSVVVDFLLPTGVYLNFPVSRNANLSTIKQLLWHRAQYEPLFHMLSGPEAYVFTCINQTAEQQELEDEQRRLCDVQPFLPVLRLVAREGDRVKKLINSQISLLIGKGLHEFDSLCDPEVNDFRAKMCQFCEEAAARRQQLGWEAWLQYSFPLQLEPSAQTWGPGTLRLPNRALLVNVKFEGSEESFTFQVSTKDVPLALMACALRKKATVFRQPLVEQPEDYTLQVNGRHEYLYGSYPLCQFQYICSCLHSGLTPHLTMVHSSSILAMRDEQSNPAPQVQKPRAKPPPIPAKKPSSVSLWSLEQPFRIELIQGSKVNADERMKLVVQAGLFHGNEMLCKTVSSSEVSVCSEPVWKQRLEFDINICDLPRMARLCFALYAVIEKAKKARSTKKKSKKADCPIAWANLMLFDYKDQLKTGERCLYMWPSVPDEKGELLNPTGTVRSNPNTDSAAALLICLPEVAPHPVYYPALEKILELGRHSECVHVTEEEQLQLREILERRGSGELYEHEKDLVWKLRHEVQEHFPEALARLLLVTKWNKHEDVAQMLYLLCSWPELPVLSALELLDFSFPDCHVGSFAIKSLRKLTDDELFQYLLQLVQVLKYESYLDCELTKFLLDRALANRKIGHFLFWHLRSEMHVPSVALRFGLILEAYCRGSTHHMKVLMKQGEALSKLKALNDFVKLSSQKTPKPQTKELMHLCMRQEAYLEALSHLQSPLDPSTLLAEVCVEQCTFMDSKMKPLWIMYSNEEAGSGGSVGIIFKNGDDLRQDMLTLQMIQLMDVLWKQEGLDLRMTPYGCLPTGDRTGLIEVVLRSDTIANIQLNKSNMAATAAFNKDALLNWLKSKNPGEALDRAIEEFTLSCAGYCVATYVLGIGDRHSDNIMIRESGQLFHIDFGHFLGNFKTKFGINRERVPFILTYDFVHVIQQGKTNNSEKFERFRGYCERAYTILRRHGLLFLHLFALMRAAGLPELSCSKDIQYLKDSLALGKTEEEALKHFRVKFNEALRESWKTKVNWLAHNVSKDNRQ

HCT-116 [3] = assay: Disruption of mitochondrial function in human HCT-116 cells assessed as decrease in mitochondrial membrane potential by measuring proportion of cells with red fluorescence at 1 uM incubated for 24 hrs by JC-1 staining based flow cytometry (reference value: 99.4%); type: functional; set-up: scale not given: the % may be the effect or the level left
HCT-116 [4] = assay: Induction of apoptosis in human HCT-116 cells assessed as late apoptotic cells at 1 uM incubated for 24 hrs in presence of 100 nM doxorubicin by AnnexinV-FITC/PI staining based flow cytometry (reference value: 3.07%); type: functional
[5] = Toxicity in BALB/c nude mouse xenografted with human HL-60 cells assessed as serum granulocytes content at 100 mg/kg, po qd for 16 days (reference value: 0.51X10^9/L); type: organism-based; conditions: in vivo, 384 h, time 16 day
HL-60 [6] = assay: Synergistic antiproliferative activity against human HL-60 cells assessed as combination index at 100 uM in presence of 0.1 uM doxorubicin by MTT assay; type: functional
[7] = Toxicity in BALB/c nude mouse xenografted with human HL-60 cells assessed as MCV level at 100 mg/kg, po qd for 16 days (reference value: 57.2 fL); type: organism-based; conditions: in vivo, 384 h, time 16 day
HCT-116 [8] = assay: Induction of apoptosis in human HCT-116 cells assessed as necrotic cells at 1 uM incubated for 24 hrs in presence of 100 nM doxorubicin by AnnexinV-FITC/PI staining based flow cytometry (reference value: 0.031%); type: functional
[9] = Toxicity in BALB/c nude mouse xenografted with human HL-60 cells assessed as serum lymphocytes content at 100 mg/kg, po qd for 16 days (reference value: 2.65X10^9/L); type: organism-based; conditions: in vivo, 384 h, time 16 day
[10] = Toxicity in BALB/c nude mouse xenografted with human HL-60 cells assessed as liver morphological alterations at 100 mg/kg, po qd for 16 days by Hematoxylin and Eosin staining based analysis; type: organism-based; conditions: in vivo, 384 h, time 16 day
[11] = AUC (0 to infinity) in Sprague-Dawley rat at 5 mg/kg, po; type: ADME, organism-based; set-up: time infinity, dose 5 mg/kg, route po; conditions: in vivo
MCF7 [12] = assay: Synergistic antiproliferative activity against human MCF7 cells assessed as combination index at 12.5 uM in presence of 0.1 uM doxorubicin by MTT assay; type: functional
MDA-MB-231 = assay: Synergistic antiproliferative activity against human MDA-MB-231 cells assessed as combination index at 50 uM in presence of 0.1 uM doxorubicin by MTT assay; type: functional
HCT-116 [13] = assay: Induction of cell cycle arrest in human HCT-116 cells assessed as increase in accumulation of cells at G2/M phase at 1 uM incubated for 24 hrs in presence of 100 nM doxorubicin by PI staining based flow cytometry; type: functional
MCF7 [14] = assay: Synergistic antiproliferative activity against human MCF7 cells assessed as combination index at 1 uM in presence of 0.1 uM doxorubicin by MTT assay; type: functional
HepG2 [15] = assay: Synergistic antiproliferative activity against Doxorubicin-resistant human HepG2 cells assessed as combination index at 200 uM in presence of 0.1 uM doxorubicin by MTT assay; type: functional
[16] = Cmax in Sprague-Dawley rat at 5 mg/kg, po; type: ADME, organism-based; set-up: dose 5 mg/kg, route po; conditions: in vivo
[17] = Half life in rat liver microsomes; type: ADME, Microsome
HCT-116 [18] = assay: Induction of cell cycle arrest in human HCT-116 cells assessed as increase in accumulation of cells at […] at 1 uM incubated for 24 hrs in presence of 100 nM doxorubicin by PI staining based flow cytometry; type: functional
HepG2 [19] = assay: Synergistic antiproliferative activity against Doxorubicin-resistant human HepG2 cells assessed as combination index at 25 uM in presence of 0.1 uM doxorubicin by MTT assay; type: functional
HL-60 [20] = assay: Synergistic antiproliferative activity against human HL-60 cells assessed as combination index at 6.25 uM in presence of 0.1 uM doxorubicin by MTT assay; type: functional
[21] = Toxicity in BALB/c nude mouse xenografted with human HL-60 cells assessed as MCHC level at 100 mg/kg, po qd for 16 days (reference value: 246 g/L); type: organism-based; conditions: in vivo, 384 h, time 16 day
[22] = Kinetic solubility of the compound in phosphate-buffered solution at pH 7.4 incubated for 24 hrs by HPLC-MS/MS analysis; type: physicochemical; conditions: phosphate buffer, read-out: Kinetic_solubility
HCT-116 [23] = assay: Induction of apoptosis in human HCT-116 cells assessed as viable cells at 1 uM incubated for 24 hrs in presence of 100 nM doxorubicin by AnnexinV-FITC/PI staining based flow cytometry (reference value: 93.9%); type: functional; conditions: read-out: Activity
HCT-116 [24] = assay: Antiproliferative activity against human HCT-116 cells assessed as inhibition of cell growth incubated for 48 hrs by MTT assay; type: functional, cell-based; conditions: HCT-116, 48 h

- AUC(0-inf) [11]: 3600 ng·h/mL
- Cmax [16]: 810 ng/mL
- half-life [17]: > 145 min
- solubility kinetic at 24 h [22]: 80 µg/mL (≈ 203 µM)
- IC50 (HCT-116 [24]): 24.1 µM
SMILES: Cc1cc2ncnn2cc1Nc1ncc2c(n1)N(C1CCOCC1)CC(=O)N2C
- Activity (MCF7 [1]): Active
- IC50 [2]: 758 nM
- Activity (HCT-116 [3]): 96.4%
- Activity (HCT-116 [4]): 7.51%
- Activity [5]: 0.49 10^9/L
- CI (HL-60 [6]): 0.551
- Activity [7]: 56.1 fL
- Activity (HCT-116 [8]): 0.002%
- Activity [9]: 3.2 10^9/L
- Activity [10]: Non-Toxic
- CI (MCF7 [12]): 0.06131
- CI (MDA-MB-231): 0.705
- Activity (HCT-116 [13]): 57.27%
- CI (MCF7 [14]): 0.03832
- CI (HepG2 [15]): 0.2062
- Activity (HCT-116 [18]): Active
- CI (HepG2 [19]): 0.07268
- CI (HL-60 [20]): 0.03585
- Activity [21]: 249 g/L
- viability at 1 µM (HCT-116 [23]): 79.1%
